By TGI is commonly meant the concentration at which net growth stops. Broadly, the GI50 is the concentration at which growth is held to half of that of the control.

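Protocol summary: plate cells (96-well), add compound at 5 concentrations, incubate 48 h, interpolate endpoints linearly. Here, GI50 denotes the concentration required for 50% inhibition of growth. TGI is the concentration that stops growth completely.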

Some test systems named below: OVCAR-4 ovarian; KM20L2 colon; NCI-H460 lung; COLO 205 colon; SF-539 CNS; SK-OV-3 ovarian; A549 NSCLC; DMS 273 small cell lung.
Assay in all cases: DTP human tumour cell line panel, 48 h

On to `N/N=C1\C(=O)N(c2ccc(Cl)cc2Cl)C(=O)C(=O)C1c1nc2ccccc2o1` (centres undefined), for which the TGI with OVCAR-4 ovarian, in the experiment on KM20L2 colon, in the experiment with NCI-H460 lung, in the experiment on COLO 205 colon, in the experiment with SF-539 CNS and in the experiment with SK-OV-3 ovarian was > 100 µM in each case. The TGI with A549 NSCLC and with DMS 273 small cell lung was > 100 µM each time.
As to `c1ccc2c(c1)oc1ccc3nsnc3c12`, the TGI was > 100 µM in the experiment on OVCAR-4 ovarian; > 100 µM with KM20L2 colon; > 10 µM in the experiment with NCI-H460 lung; > 100 µM in the experiment on COLO 205 colon; > 100 µM in the experiment on SF-539 CNS; > 100 µM in the experiment on SK-OV-3 ovarian. The TGI in the experiment with A549 NSCLC and with DMS 273 small cell lung was > 100 µM throughout.
For `N.N.N.N.N.O=[N+]([O-])[O-].[Co+3].[O-][Cl+3]([O-])([O-])[O-]`, the GI50 in the experiment with OVCAR-4 ovarian, with KM20L2 colon, in the experiment with NCI-H460 lung, in the experiment on COLO 205 colon, in the experiment on SF-539 CNS and in the experiment with SK-OV-3 ovarian was > 100 µM throughout. Also, the GI50 with A549 NSCLC and in the experiment on DMS 273 small cell lung was > 100 µM each time. Besides, the TGI in the experiment on OVCAR-4 ovarian, in the experiment on KM20L2 colon, in the experiment with NCI-H460 lung, with COLO 205 colon, in the experiment with SF-539 CNS and in the experiment on SK-OV-3 ovarian was > 100 µM each time. For the same molecule, the TGI with A549 NSCLC and in the experiment on DMS 273 small cell lung was > 100 µM each time.
In the case of `COc1ccc(/C(Cl)=C/c2cc(OC)ccc2OC)cc1`, the TGI in the experiment on OVCAR-4 ovarian, in the experiment with KM20L2 colon, in the experiment on COLO 205 colon, in the experiment with SF-539 CNS, in the experiment on SK-OV-3 ovarian and in the experiment on A549 NSCLC was > 100 µM throughout. In addition, the TGI in the experiment on DMS 273 small cell lung is > 100 µM.
`C=CCC1=C(C)C[C@@H]2CCC(=O)C=C12`: the TGI in the experiment on OVCAR-4 ovarian, in the experiment with NCI-H460 lung, in the experiment with COLO 205 colon, in the experiment on SF-539 CNS, in the experiment on SK-OV-3 ovarian and in the experiment with A549 NSCLC was > 100 µM in each case. The total growth inhibition concentration (TGI) in the experiment with DMS 273 small cell lung was > 100 µM.
Consider `COc1ccc(CCn2c(=O)c3ccccc3n(C)c2=O)cc1`, for which the TGI in the experiment on OVCAR-4 ovarian is > 100 µM; with KM20L2 colon it was > 100 µM; in the experiment with NCI-H460 lung it was > 100 µM; with COLO 205 colon, 50.1 µM; with SF-539 CNS it was > 100 µM; in the experiment on SK-OV-3 ovarian, > 100 µM. For the same molecule, the TGI in the experiment with A549 NSCLC was > 100 µM.
In the case of `NNC(=O)C(=O)N/N=C1\CCC(=O)CC1C(=O)CCC(=O)Nc1ccc(Cl)cc1` (centres undefined), the TGI in the experiment with OVCAR-4 ovarian, with KM20L2 colon, in the experiment on NCI-H460 lung, in the experiment on COLO 205 colon, with SF-539 CNS and in the experiment with SK-OV-3 ovarian was > 100 µM throughout. The TGI in the experiment on A549 NSCLC and in the experiment on DMS 273 small cell lung was > 100 µM in each case.
In the case of `COc1ccc(CCc2cc(OC)cc(OC)c2)cc1`, the TGI in the experiment with OVCAR-4 ovarian is > 100 µM; in the experiment on KM20L2 colon it was > 58 µM; in the experiment with NCI-H460 lung it was > 100 µM; with COLO 205 colon, > 60.5 µM; in the experiment with SF-539 CNS it was > 100 µM; with SK-OV-3 ovarian, > 100 µM. Besides, the TGI in the experiment with A549 NSCLC and with DMS 273 small cell lung was > 100 µM each time.
Regarding `C=CCO/N=C(\OC(=O)c1ccc([N+](=O)[O-])cc1)c1ccccc1`, the total growth inhibition concentration (TGI) in the experiment with OVCAR-4 ovarian, in the experiment on NCI-H460 lung, in the experiment with COLO 205 colon, in the experiment on SF-539 CNS, with SK-OV-3 ovarian and with A549 NSCLC was > 100 µM each time. For the same molecule, the TGI in the experiment with DMS 273 small cell lung was > 100 µM.
As to `CC(=O)O[C@]1(C)OC(=O)[C@@H](CC(C)C)N1[N+](=O)[O-]`, the TGI in the experiment on OVCAR-4 ovarian, in the experiment on KM20L2 colon, in the experiment with NCI-H460 lung, in the experiment on COLO 205 colon, in the experiment on SF-539 CNS and in the experiment with SK-OV-3 ovarian was > 100 µM throughout. Moreover, the TGI in the experiment with A549 NSCLC and with DMS 273 small cell lung was > 100 µM in each case.
For the molecule `Cc1c(NC(=S)NC(=O)c2ccc([N+](=O)[O-])cc2)c(=O)n(-c2ccccc2)n1C`, the TGI with OVCAR-4 ovarian, in the experiment with KM20L2 colon, with NCI-H460 lung, with COLO 205 colon, in the experiment with SF-539 CNS and with SK-OV-3 ovarian was > 100 µM throughout. Also, the TGI in the experiment on A549 NSCLC and in the experiment on DMS 273 small cell lung was > 100 µM in each case.
For the molecule `CC1=NN(C(=O)c2ccc(Cl)cc2)C(=O)/C1=C/c1ccccc1O`, the TGI with OVCAR-4 ovarian, in the experiment with KM20L2 colon, in the experiment on NCI-H460 lung, with COLO 205 colon, in the experiment on SF-539 CNS and in the experiment on SK-OV-3 ovarian was > 100 µM in each case. Besides, the TGI with A549 NSCLC was > 100 µM.
With `O=S(=O)(NCn1ccc2ccccc21)c1ccccc1`, the TGI in the experiment with KM20L2 colon, in the experiment on NCI-H460 lung, in the experiment on COLO 205 colon, in the experiment on SF-539 CNS, in the experiment with SK-OV-3 ovarian and with A549 NSCLC was > 100 µM throughout. The TGI with DMS 273 small cell lung is > 100 µM.
For the molecule `O=c1ncccn1C1OC(CO)C(O)C1O` (centres undefined), the TGI with OVCAR-4 ovarian, in the experiment with KM20L2 colon, in the experiment on NCI-H460 lung, in the experiment on COLO 205 colon, with SK-OV-3 ovarian and in the experiment with A549 NSCLC was > 100 µM throughout. The TGI with DMS 273 small cell lung is > 100 µM.
`COC(=O)c1c2c(cc3c1CC1(Cc4cc5c(c(C(C)=O)c4C1)CCC5)C3)CCC2` (centres undefined): the TGI in the experiment on OVCAR-4 ovarian, in the experiment on NCI-H460 lung, in the experiment on COLO 205 colon, in the experiment with SF-539 CNS, in the experiment with A549 NSCLC and in the experiment on DMS 273 small cell lung was > 100 µM throughout.
As to `Cc1cccc(C)c1NC(=O)CCc1nc(=S)[nH][nH]1`, the TGI with OVCAR-4 ovarian, in the experiment with KM20L2 colon, in the experiment with NCI-H460 lung, in the experiment with COLO 205 colon, in the experiment on SF-539 CNS and with SK-OV-3 ovarian was > 100 µM in each case. In addition, in the experiment on A549 NSCLC, the TGI is > 100 µM.
For the molecule `CC(C)(C)C(=CS(=O)/N=C/c1ccccc1)C(C)(C)C` (centres undefined), the concentration for total growth inhibition (TGI) in the experiment on OVCAR-4 ovarian was 70.9 µM; in the experiment with KM20L2 colon it was > 100 µM; in the experiment on NCI-H460 lung it was 73.2 µM; in the experiment with COLO 205 colon, > 100 µM; with SF-539 CNS, > 100 µM; in the experiment on SK-OV-3 ovarian, 69.8 µM. Besides, the values for the TGI in the experiment on A549 NSCLC and with DMS 273 small cell lung were > 100 µM and 92 µM, respectively.

Source of the values: PubChem BioAssay (NCI).
